We go through 52 compounds from the supplement of paper PMC3493320.

Where only a bound is given, the exact number is not on record here.

Holding throughout (conditions): 48 h
In test [1] the test system is NCI-H295R. In words: IC50 (antiproliferative, ATP content).
Test [2] deals with NCI-H295R. Nature of the test: maximal response (efficacy) relative to DMSO (0%) and doxorubicin (-100%); higher = less growth inhibition.
In test [3] the test system is NCI-H295R. Nature of the test: IC50 (antiproliferative, ATP content). An outline of the steps:
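Adrenocortical carcinoma cells (1500 per well) were seeded in serum-free ITS-supplemented DMEM in 1536-well plates and cultured overnight. Library compounds were then pin-transferred at 8 final concentrations from 0.6 nM to 46 µM, and plates were kept 48 h at 37 °C, 5% CO2. ATP was read as CellTiter-Glo luminescence after 20 min at room temperature and normalised to vehicle (0%) and positive control (100% inhibition). IC50 came from four-parameter logistic fits; compounds with no concentration response were recorded as above the top dose.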
The source holds these as a separate data set.

For `[O-]C(C(I)=C2)=C(I)C=C2/C(C(C=CC=C3)=C3C([O-])=O)=C1\C=C(I)C(C(I)=C1)=O.[Na+].[Na+]`, the IC50 with NCI-H295R [1] turned out to be 26.6 µM. Besides, in the test with NCI-H295R [2], the maximal response is -104%.
On the same counts, the results for `CC(=O)Oc1ccccc1C(=O)Nc1ncc([N+](=O)[O-])s1` are 15 µM and -70.8%.
In the test on NCI-H295R [1], `CO[C@@H]1[C@H](C)O[C@@H](O[C@H]2C[C@@H](Oc3cc4cc5c(c(O)c4c(O)c3C)C(=O)[C@H](O[C@@H]3C[C@H](O[C@@H]4C[C@H](O[C@@H]6C[C@@](C)(O)[C@H](OC(C)=O)[C@@H](C)O6)[C@@H](O)[C@H](C)O4)[C@@H](O)[C@H](C)O3)[C@@H]([C@@H](OC)C(=O)[C@H](O)[C@H](C)O)C5)O[C@@H](C)[C@H]2OC(C)=O)C[C@@H]1O` showed an IC50 of 1.06 µM. For the same compound, the maximal response with NCI-H295R [2] is -111%.
On the same counts, the results for `Cc1cc(/C=C/c2ccc3cc(N(C)C)ccc3[n+]2C)c(C)n1-c1ccccc1.Cc1cc(/C=C/c2ccc3cc(N(C)C)ccc3[n+]2C)c(C)n1-c1ccccc1.O=C([O-])c1cc2ccccc2c(Cc2c(O)c(C(=O)[O-])cc3ccccc23)c1O` are 7.18 µM and -69.7%.
The compound `O=[C@@]([C@@H]4C3=CC(C(C1=CC=CC(O)=C12)=O)=C(C(O)=C3[C@@H](O[C@@H]7O[C@H]([C@H]([C@@H](N(C)C)C7)O[C@H](O6)C[C@@H]([C@@H]([C@@H]6C)O[C@H](O5)CCC([C@@H]5C)=O)O)C)C[C@](CC)4O)C2=O)OC.Cl` yielded an IC50 with NCI-H295R [1] of 0.944 µM. Also, the maximal response in the test with NCI-H295R [2] is -122%.
On the same counts, the results for `Oc1ccc(Cl)cc1Sc1cc(Cl)ccc1O` are 15 µM and -135%.
`CC[C@@H](C(=O)O)[C@@H]1O[C@@H]([C@@H](C)[C@H](O)[C@H](C)C(=O)[C@H](CC)[C@H]2O[C@]3(C=C[C@@H](O)[C@]4(CC[C@@](C)([C@H]5CC[C@](O)(CC)[C@H](C)O5)O4)O3)[C@H](C)C[C@@H]2C)[C@@H](C)C[C@@H]1C`: in the test with NCI-H295R [1], the IC50 is 5.31 µM. Further, the maximal response with NCI-H295R [2] was -140%.
The matching figures for `COc1cc(NCCCC(C)N)c2ncccc2c1` (centres undefined): 2.37 µM and -124%.
On to `CC(=O)Nc1ccc(NC(=S)NC(=O)c2ccc(C(C)(C)C)cc2)cc1`, for which the IC50 with NCI-H295R [1] worked out at 21.1 µM. Besides, the maximal response in the test on NCI-H295R [2] was -151%.
`O=C([C@](C(C=C4OC)=C(C=C4OC)OC3)([H])[C@]3([H])O2)C(C=C5)=C2C1=C5O[C@@H]([C@@](C)=C)C1` came in with an IC50 with NCI-H295R [1] of 0.75 µM. For the same compound, the maximal response in the test on NCI-H295R [2] was -69.2%.
The matching figures for `CCN1C(=CC=Cc2sc3ccccc3[n+]2CC)Sc2ccccc21.[I-]`: 15 µM and -149%.
As to `CCN(CC)CCCN(c1ccccc1)C1Cc2ccccc2C1.Cl`, in the test with NCI-H295R [1], the concentration for half-maximal inhibition (IC50) worked out at 16.8 µM. The maximal response in the test with NCI-H295R [2] was -138%.
`CCCCCCCCCCCCCC[N+](C)(C)C.[Br-]`: in the test with NCI-H295R [1], the IC50 amounted to 23.7 µM. Besides, the maximal response with NCI-H295R [2] was -160%.
On the same counts, the results for `CC[C@H]1CN2CCc3cc(OC)c(OC)cc3[C@@H]2C[C@@H]1C[C@H]1NCCc2cc(OC)c(OC)cc21` are 2.11 µM and -130%.
The matching figures for `[C@@]42([C@@]([C@@H](/C/1=C/OC(\C=C\1)=O)CC2)(CC[C@@H]5[C@]\3(CC[C@@H](/C=C/3CC[C@@H]45)O[C@H]6[C@@H]([C@@H]([C@H]([C@@H](O6)C)O)O)O)C)C)O`: 0.0128 µM and -111%.
For `C=C1/C(=C\C=C2/CCC[C@]3(C)[C@@H]([C@H](C)CCCC(C)C)CC[C@@H]23)C[C@@H](O)C[C@@H]1O`, the half-inhibitory concentration (IC50) with NCI-H295R [1] stood at 23.7 µM. The maximal response in the test on NCI-H295R [2] was -142%.
In the test on NCI-H295R [1], `O[C@H]2C[C@@H](O[C@H](C)[C@H]2O[C@@H]3O[C@H](C)[C@@H](O[C@H]4C[C@H](O)[C@H](OC)[C@@H](C)O4)[C@@H](O)C3)O[C@H]1CC[C@@]5(C)[C@@](CC[C@]6([H])[C@@]([H])5C[C@@H](O)[C@@]7(C)[C@@](O)6CC[C@@H]7[C@@](CO8)=CC8=O)([H])C1` showed an IC50 of 0.237 µM. In addition, in the test on NCI-H295R [2], the maximal response was -111%.
The matching figures for `CC1(COc2ccc(CC3SC(=O)NC3=O)cc2)CCCCC1` (centres undefined): 26.6 µM and -167%.
In the test with NCI-H295R [1], `COc1ccc(C=CC(=O)c2ccc(OC)cc2OC)cc1` displayed an IC50 of 23.7 µM. Further, the maximal response in the test on NCI-H295R [2] is -117%.
Turning to `O=c1oc2ccccc2c(O)c1C(CC(O)c1ccc(-c2ccc(Br)cc2)cc1)c1ccccc1` (centres undefined), the IC50 in the test with NCI-H295R [1] was found to be 9.44 µM. The maximal response in the test with NCI-H295R [2] is -115%.
`Cc1cc(C(C#N)c2ccc(Cl)cc2)c(Cl)cc1NC(=O)c1cc(I)cc(I)c1O` (centres undefined) showed a half-maximal inhibitory concentration (IC50) in the test with NCI-H295R [1] of 4.22 µM. Moreover, in the test with NCI-H295R [2], the maximal response was -130%.
The matching figures for `COC(=O)C[C@](O)(CCCC(C)(C)O)C(=O)O[C@@H]1C(OC)=C[C@]23CCCN2CCc2cc4c(cc2[C@H]13)OCO4`: 0.211 µM and -125%.
Turning to `C[C@]12CC[C@@H]3c4ccc(O)cc4CC[C@H]3[C@@H]1CC[C@@H]2OC(=O)CCC1CCCC1`, the maximal response with NCI-H295R [2] was -33.7%. In addition, in the test on NCI-H295R [3], the IC50 was greater than 46 µM.
Take `Cc1cc(O)c2c3c4c(cc(O)c13)C(C)(C)C(=O)c1c(O)cc(O)c(c1-4)C2=O`: the IC50 in the test on NCI-H295R [1] came to 3.35 µM. Also, in the test with NCI-H295R [2], the maximal response was -103%.
Regarding `CC1=C(/C=C/C(C)=C/C=C/C(C)=C/C(=O)Nc2ccc(O)cc2)C(C)(C)CCC1`, the IC50 with NCI-H295R [1] was 9.44 µM. Further, the maximal response with NCI-H295R [2] is -125%.
The matching figures for `OC[C@@]([C@@](C[C@@H](C4=C(C(C(C2=C(C=CC=C23)OC)=O)=C(C(O)=C4C5)C3=O)O)O[C@H](O1)C[C@@H]([C@@H]([C@@H]1C)O)N)5O)=O.Cl`: 11.9 µM and -102%.
The matching figures for `Cl.O=C1CSC2(CCN(CCCN3c4ccccc4Sc4ccc(Cl)cc43)CC2)N1`: 21.1 µM and -136%.
On the same counts, the results for `CC1(CN2CCC(n3c(=O)[nH]c4ccccc43)CC2)OCc2ccccc2-n2cccc21` (centres undefined) are 26.6 µM and -96.9%.
In the test with NCI-H295R [1], `CC(C)(C)c1ccc(C(=O)CCCN2CCC(OC(c3ccccc3)c3ccccc3)CC2)cc1` showed an IC50 of 16.8 µM. Moreover, the maximal response with NCI-H295R [2] was -139%.
On the same counts, the results for `O=C(Nc1ccc(Oc2ccc(Cl)cc2)c(Cl)c1)c1cc(I)cc(I)c1O` are 4.73 µM and -137%.
The matching figures for `CNC(=O)c1cc(Oc2ccc(NC(=O)Nc3ccc(Cl)c(C(F)(F)F)c3)cc2)ccn1.Cc1ccc(S(=O)(=O)O)cc1`: 10.6 µM and -129%.
As to `OC(=O)[C@]3(C)C[C@H]4/C5=C/C(=O)[C@H]2[C@@](C)(CC[C@@H]1[C@]2(C)CC[C@H](O)C1(C)C)[C@]5(C)CC[C@@]4(C)CC3`, the maximal response with NCI-H295R [2] was -50.7%. In the test with NCI-H295R [3], this compound returned an IC50 greater than 46 µM.
On to `O=C1C(C(O)=C4C([C@@H](O[C@@H]5O[C@@H](C)[C@@H](O[C@@H]6CCCCO6)[C@@H](N)C5)C[C@@]([C@](CO)=O)(O)C4)=C3O)=C3C(C2=C1C=CC=C2OC)=O`, for which, in the test with NCI-H295R [2], the maximal response is -43%.
On the same count and under the same terms, the value for `CCCOc1ccc2[nH]c(NC(=O)OC)nc2c1` was -48.4%.
The same measure, in the same setting: the result for `Cc1ccc2c(Br)cc(Br)c(O)c2n1` reads -71.4%; that for `CCNC(=O)N1CCN(CCCC(c2ccc(F)cc2)c2ccc(F)cc2)CC1.Cl`, -34.2%.
The same measure, in the same setting: the value for `CN(C)CCCN1c2ccccc2CCc2ccc(Cl)cc21` was -31.2%.
Turning to `CCC/C=C/C=C/C(=O)O[C@H]1/C(=C/C(=O)OC)C[C@H]2C[C@H]([C@@H](C)O)OC(=O)C[C@H](O)C[C@@H]3C[C@H](OC(C)=O)C(C)(C)[C@](O)(C[C@@H]4C/C(=C/C(=O)OC)C[C@H](/C=C/C(C)(C)[C@]1(O)O2)O4)O3`, the maximal response in the test on NCI-H295R [2] is -41.4%.
On the same count and under the same terms, the result for `CCCOc1ccc2nc(NC(=O)OC)sc2c1` reads -48.5%; that for `COc1cc2c(c(OC)c1OC)-c1ccc(OC)c(=O)cc1[C@@H](NC(C)=O)CC2`, -49.9%.
The same measure, in the same setting: the value for `Nc1ncnc2c1ncn2[C@@H]1O[C@H](COP(=O)(O)O)[C@@H](O)[C@@H]1O` was 22%; that for `CN(Cc1ccc(C(C)(C)C)cc1)Cc1cccc2ccccc12` was -43.8%.
On to `N[C@@H](Cc1cc(I)c(Oc2cc(I)c(O)c(I)c2)c(I)c1)C(=O)O`, for which the maximal response with NCI-H295R [2] is -25.6%.
Still for that read-out and setting: the value for `O=C(C4=CC(OC)=C(C(OC)=C4)OC)O[C@@H]1C[C@@]3([H])[C@@](C[C@](N5C3)([H])C2=C(CC5)C(C=CC=C6)=C6N2)([H])[C@H]([C@](OC)=O)[C@H]1OC` was -51.8%; that for `COc1c(C)c2c(c(O)c1CC=C(C)CCC(=O)OCCN1CCOCC1)C(=O)OC2` was -54.6%.
Same read-out and setting: the result for `COc1cc(C(=O)OCCCN2CCCN(CCCOC(=O)c3cc(OC)c(OC)c(OC)c3)CC2)cc(OC)c1OC` reads -31.2%.
As to `COC(=O)Nc1nc2cc(C(=O)c3cccs3)ccc2[nH]1`, in the test on NCI-H295R [2], the maximal response was -53.8%.
On the same count and under the same terms, the result for `CCOC(=O)Oc1c(OC)cc(cc1OC)C(=O)O[C@@H]4C[C@@H]5CN6CC\C3=C(\Nc2cc(OC)ccc23)[C@H]6C[C@@H]5[C@H](C(=O)OC)[C@H]4OC` reads -30.6%.
Still for that read-out and setting: the result for `Cl.O=C(C[C@@H]1NCCC[C@H]1O)Cn1cnc2cc(Br)c(Cl)cc2c1=O` reads -28.3%.
The same measure, in the same setting: the result for `C[C@]12CCC(=O)C=C1[C@@H]1C[C@@H]1[C@H]1[C@@H]3[C@@H]4C[C@@H]4[C@@]4(CCC(=O)O4)[C@@]3(C)CC[C@@H]12` reads -33.2%; that for `Nc1ccc(C(=O)Nc2ccccc2N)cc1`, -43.9%; that for `Clc1ccc(C(Cn2ccnc2)OCc2csc3c(Cl)cccc23)c(Cl)c1.O=[N+]([O-])O` (centres undefined), -24.9%.
